Data taken from US10251874B2, “Crystalline forms of a JAK inhibitor compound” (THERAVANCE BIOPHARMA R&D IP, LLC, priority 2017, dated 2019).

Experiments:
[1] = system: IL-2 stimulated pSTAT5 in CD4+ T cells; assay: Assay 4: Inhibition of IL-2 stimulated pSTAT5 in CD4+ T cells; assay type: cell-based; conditions: CD4+ T cells in human PBMCs, flow cytometry; read-out: pIC50, inhibition of IL-2 stimulated pSTAT5 (converted)
Description: The potency of the test compound for inhibition of interleukin-2 (IL-2)/anti-CD3 stimulated STATS phosphorylation was measured in CD4-positive (CD4+) T cells in human peripheral blood mononuclear cells (PBMCs) isolated from human whole blood (Stanford Blood Center) using flow cytometry. Because IL-2 signals through JAK, this assay provides a measure of JAK cellular potency.
CD4+T cells were identified using a […] (PE) conjugated anti-CD4 antibody (Clone RPA-T4, BD Biosciences), while an Alexa Fluor 647 conjugated anti-pSTAT5 antibody (pY694, Clone 47, BD Biosciences) was used to detect STATS phosphorylation.
(1) The protocol of Assay 3 paragraph (1) was followed with the exception that the cytokine stimulation with anti-CD3 was performed for 30 min instead of 24 h. […] After incubation, cells were washed twice in FACS buffer before being analyzed using a LSRII flow cytometer (BD Biosciences). To determine the inhibitory potency of the test compound in response to IL-^2/anti-CD3, the median fluorescent intensity (MFI) of pSTAT5 was measured in CD4+ T cells. IC50 values were determined from analysis of the inhibition curves of MFI vs compound concentration. Data are expressed as pIC50 (negative decadic logarithm IC50) values.

[2] = system: IFNγ-induced IP-10; assay: Assay 14: Pharmacodynamic assay: inhibition of IFNγ-induced IP-10 in rabbits; assay type: in vivo, New Zealand White rabbits; conditions: rabbit
Description: The ability of a single intravitreal administration of test compound to inhibit interferon-gamma (IFNγ) induced IP-10 protein levels was measured in rabbit vitreous and retina/choroid tissues.
Solution formulations at concentrations of 1 mg/mL and 4 mg/mL of compound 1 of Example 2 were prepared as in Assay 12. A suspension formulation was prepared by combining crystalline compound 1 of Example 2 with 0.5% hydroxypropyl methylcellulose (HPMC E5), 0.02% Tween 80, and 9 mg/mL sodium chloride in purified water to attain a target concentration of 20 mg/mL.
Male, New Zealand White rabbits (Liveon Biolabs, India) were used for the studies. Animals were acclimated after arrival at the research facilities (Jubilant Biosys Ltd., India). Each rabbit was given a total of two intravitreal (IVT) injections with a total dose volume of 50 μL per eye. The first IVT injection (45 μL per eye) delivered test compound or vehicle at a prescribed time point (i.e. 24 hours for the solution formulations or 1 week for the suspension formulation). The second IVT injection (5 μL per eye) delivered IFNγ (1 μg/eye; Stock solution 1 mg/mL; Kingfisher Biotech) or vehicle for the induction of IP-10. In brief, on the day of the injections, rabbits were anesthetized with an intramuscular injection of ketamine (35 mg/kg) and xylazine (5 mg/kg). Once deeply anesthetized, each eye was rinsed with sterile saline and IVT injections were performed using a 0.5 mL insulin syringe (50 units=0.5 mL) with a 31-gauge needle at the supra-nasal side of the both eyes by marking the position with a Braunstein fixed caliper (2 ¾″) 3.5 mm from the rectus muscle and 4 mm from the limbus.
Tissues were collected 24 hours after the second IVT injection with IFNγ. Vitreous humor (VH) and retina/choroid tissues (R/C) were collected and homogenized, and IP-10 protein levels were measured using a rabbit CXCL10 (IP-10) ELISA kit (Kingfisher Biotech). The percent inhibition of IFNγ-induced IP-10 was calculated in comparison to the vehicle/vehicle and vehicle/IFNγ groups.

[3] = IVT crystalline suspension 20 mg/mL (Example 2), 1 week pre-treatment
[4] = IVT solution, 45 μg, 24 hour pre-treatment
[5] = IVT solution, 180 μg, 24 hour pre-treatment

Which IC50 [1] does the source give for CCc1cc(O)c(F)cc1-c1ccc2c(-c3nc4c([nH]3)CCN(C3CCN(C)CC3)C4)n[nH]c2c1 [Compound 1, 5-ethyl-2-fluoro-4-(3-(5-(1-methylpiperidin-4-yl)-4,5,6,7-tetrahydro-1H-imidazo[4,5-c]pyridin-2-yl)-1H-indazol-6-yl)phenol] here?
The IC50 was roughly 20 nM.

What about the “inhibition of IFNγ-induced IP-10 in retina/choroid tissues” value [2, 3] of the same molecule?
Its value is 100%.

And the “inhibition of IFNγ-induced IP-10 in vitreous humor” value (from here on “inhibition … in vitreous humor”) [2, 3]?
Its value is 100%.

And the “inhibition of IFNγ-induced IP-10 in retina/choroid tissue” value [2, 4]?
Its value is 86%.

What about the “inhibition … in vitreous humor” value [2, 4] of the same molecule?
The value was 70%.

And the “inhibition of IFNγ-induced IP-10 in retina/choroid tissue” value [2, 5]?
The value was 100%.

What about the “inhibition … in vitreous humor” value [2, 5] of the same molecule?
The value was 91%.
